The test system of the test is BDF1 mice, P388 leukemia ip, median survival T/C. The test is described as follows: NCI In Vivo Anticancer Drug Screen. Data for tumor model P388 Leukemia (intraperitoneal) in B6D2F1 (BDF1) mice. The following applies: endpoint: median survival time, higher = longer survival. In a few lines:
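Steps: implant the tumour, treat one group with compound and another with vehicle, record survival, then divide treated by control.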

Where [1] appears, read: dose: 25.0 mg/kg/injection, schedule: Q01DX009 (ip), vehicle: saline.
[2] abbreviates: dose: 50.0 mg/kg/injection, schedule: Q01DX009 (ip), vehicle: saline.
Where [3] appears, read: dose: 50.0 mg/kg/injection, schedule: Q01DX009 (ip), vehicle: saline with Tween-80.
[4] abbreviates: dose: 100.0 mg/kg/injection, schedule: Q01DX009 (ip), vehicle: saline with Tween-80.
Where [5] appears, read: dose: 100.0 mg/kg/injection, schedule: Q01DX009 (ip), vehicle: Klucel (hydroxypropylcellulose) (HPC).
[6] abbreviates: dose: 100.0 mg/kg/injection, schedule: Q04DX003 (ip), vehicle: Klucel (hydroxypropylcellulose) (HPC).
The mark [7] stands for this setting: dose: 200.0 mg/kg/injection, schedule: Q01DX009 (ip), vehicle: Klucel (hydroxypropylcellulose) (HPC).
The mark [8] stands for this setting: dose: 200.0 mg/kg/injection, schedule: Q04DX003 (ip), vehicle: Klucel (hydroxypropylcellulose) (HPC).
Setting [9] is: dose: 400.0 mg/kg/injection, schedule: Q04DX003 (ip), vehicle: Klucel (hydroxypropylcellulose) (HPC).

Where “and” joins values, the source holds several entries; their conditions need not be identical. Identical values can stand only once. Toxic doses and inconclusive results are not listed.

As for `C[n+]1ccc(Nc2ccc(NC(=O)c3ccc(Nc4cc[n+](C)c5ccc(N)cc45)cc3N)cc2)cc1`, the T/C runs as follows: (dose: 0.5 mg/kg/injection, schedule: Q01DX010 (ip), vehicle: saline) 150 % of control; (dose: 0.88 mg/kg/injection, schedule: Q04DX003 (ip), vehicle: saline with Tween-80) 123 % of control; (dose: 1.0 mg/kg/injection, schedule: Q01DX010 (ip), vehicle: saline) 160 % of control; (dose: 1.56 mg/kg/injection, schedule: Q01DX009 (ip), vehicle: Klucel (hydroxypropylcellulose) (HPC)) 194 % of control; (dose: 2.0 mg/kg/injection, schedule: Q01DX009 (ip), vehicle: saline with Tween-80) 150 % of control; (dose: 2.0 mg/kg/injection, schedule: Q01DX010 (ip), vehicle: saline) 205 % of control. The T/C reads like this: (dose: 3.0 mg/kg/injection, schedule: Q04DX003 (ip), vehicle: saline with Tween-80) 152 % of control; (dose: 3.12 mg/kg/injection, schedule: Q01DX009 (ip), vehicle: Klucel (hydroxypropylcellulose) (HPC)) 252 % of control and 216 % of control; (dose: 3.12 mg/kg/injection, schedule: Q01DX009 (ip), vehicle: saline) 169 % of control; (dose: 3.6 mg/kg/injection, schedule: Q04DX003 (ip), vehicle: saline with Tween-80) 154 % of control; (dose: 4.0 mg/kg/injection, schedule: Q01DX009 (ip), vehicle: saline with Tween-80) 229 % of control; (dose: 4.0 mg/kg/injection, schedule: Q01DX010 (ip), vehicle: saline) 300 % of control. For the same molecule, the T/C (dose: 5.56 mg/kg/injection, schedule: Q04DX003 (ip), vehicle: saline) is 168 % of control; the T/C (dose: 5.6 mg/kg/injection, schedule: Q04DX003 (ip), vehicle: saline with Tween-80) was 159 % of control; the T/C (dose: 6.25 mg/kg/injection, schedule: Q01DX009 (ip), vehicle: Klucel (hydroxypropylcellulose) (HPC)) is 266 % of control and 267 % of control; the T/C (dose: 6.25 mg/kg/injection, schedule: Q01DX009 (ip), vehicle: saline) was 172 % of control; the T/C (dose: 6.25 mg/kg/injection, schedule: Q01DX010 (ip), vehicle: saline) is 300 % of control; the T/C (dose: 6.25 mg/kg/injection, schedule: Q04DX003 (ip), vehicle: saline) is 163 % of control. For the same molecule, the T/C reads like this: (dose: 8.0 mg/kg/injection, schedule: Q01DX009 (ip), vehicle: saline with Tween-80) 250 % of control; (dose: 8.3 mg/kg/injection, schedule: Q04DX003 (ip), vehicle: saline with Tween-80) 177 % of control; (dose: 8.33 mg/kg/injection, schedule: Q04DX003 (ip), vehicle: saline) 227 % of control; (dose: 12.5 mg/kg/injection, schedule: Q01DX009 (ip), vehicle: Klucel (hydroxypropylcellulose) (HPC)) 267 % of control and 199 % of control; (dose: 12.5 mg/kg/injection, schedule: Q01DX009 (ip), vehicle: saline) 172 % of control; (dose: 12.5 mg/kg/injection, schedule: Q01DX010 (ip), vehicle: saline) 300 % of control. For the same molecule, the T/C (dose: 12.5 mg/kg/injection, schedule: Q04DX003 (ip), vehicle: saline with Tween-80) is 209 % of control; the T/C (dose: 12.5 mg/kg/injection, schedule: Q04DX003 (ip), vehicle: saline) is 200 % of control and 218 % of control and 186 % of control; the T/C (dose: 16.0 mg/kg/injection, schedule: Q01DX009 (ip), vehicle: saline with Tween-80) was 250 % of control; the T/C (dose: 18.7 mg/kg/injection, schedule: Q04DX003 (ip), vehicle: saline with Tween-80) was 263 % of control; the T/C (dose: 25.0 mg/kg/injection, schedule: Q01DX009 (ip), vehicle: Klucel (hydroxypropylcellulose) (HPC)) is 116 % of control; the T/C under setting [1] was 172 % of control. For the same molecule, the T/C runs as follows: (dose: 25.0 mg/kg/injection, schedule: Q04DX003 (ip), vehicle: saline) 272 % of control and 254 % of control; (dose: 26.0 mg/kg/injection, schedule: Q04DX003 (ip), vehicle: saline with Tween-80) 272 % of control; (dose: 32.0 mg/kg/injection, schedule: Q01DX009 (ip), vehicle: saline with Tween-80) 112 % of control; (dose: 40.0 mg/kg/injection, schedule: Q04DX003 (ip), vehicle: saline with Tween-80) 272 % of control; under setting [2], 106 % of control; (dose: 50.0 mg/kg/injection, schedule: Q01DX010 (ip), vehicle: saline) 90 % of control. Moreover, the T/C is 310 % of control (dose: 50.0 mg/kg/injection, schedule: Q04DX003 (ip), vehicle: saline) and 272 % of control (dose: 60.0 mg/kg/injection, schedule: Q04DX003 (ip), vehicle: saline with Tween-80).

As for `Fc1ccccc1C1=NCC(=S)N(CC(F)(F)F)c2ccc(Cl)cc21`, the T/C runs as follows: under setting [3], 100 % of control; under setting [4], 96 % of control.

As for `NC(=O)/C=C/C(=O)O`, the T/C by setting is: under setting [1], 101 % of control; under setting [2], 93 % of control; (dose: 100.0 mg/kg/injection, schedule: Q01DX009 (ip), vehicle: saline) 103 % of control; (dose: 200.0 mg/kg/injection, schedule: Q01DX009 (ip), vehicle: saline) 101 % of control.

On to `O=C(O)C1OC(n2cc([N+](=O)[O-])c(=O)[nH]c2=O)C(O)C1O` (stereo not drawn), for which the T/C (dose: 25.0 mg/kg/injection, schedule: Q01DX009 (ip), vehicle: saline with Tween-80) is 95 % of control; the T/C under setting [3] is 96 % of control; the T/C under setting [4] is 93 % of control.

As to `O=C(O)COc1ccc(Cl)cc1Cl`, the T/C by setting is: under setting [3], 118 % of control; (dose: 200.0 mg/kg/injection, schedule: Q01DX009 (ip), vehicle: saline with Tween-80) 90 % of control.

Take `Cc1ccc(S(=O)(=O)OCC2C3C=CC(C3)C2COS(=O)(=O)c2ccc(C)cc2)cc1` (stereo not drawn): the T/C was 86 % of control under setting [5]; 86 % of control under setting [6]; 104 % of control under setting [7]; 90 % of control under setting [8]; 100 % of control (dose: 400.0 mg/kg/injection, schedule: Q01DX009 (ip), vehicle: Klucel (hydroxypropylcellulose) (HPC)); 90 % of control under setting [9].

As to `Fc1ccc(C=Nc2cccc(Cl)c2)cc1`, the T/C reads like this: (dose: 100.0 mg/kg/injection, schedule: Q04DX003 (ip), vehicle: saline with Tween-80) 108 % of control; (dose: 200.0 mg/kg/injection, schedule: Q04DX003 (ip), vehicle: saline with Tween-80) 104 % of control; (dose: 400.0 mg/kg/injection, schedule: Q04DX003 (ip), vehicle: saline with Tween-80) 108 % of control.

Take `CN(C)C1C(=O)C(C(=O)NCNC(CCS(C)=O)C(=O)O)=C(O)C2(O)C(=O)C3=C(O)c4c(O)cccc4C(C)(O)C3CC12` (stereo not drawn): the T/C reads like this: (dose: 100.0 mg/kg/injection, schedule: Q01DX001 (ip), vehicle: saline) 100 % of control; (dose: 200.0 mg/kg/injection, schedule: Q01DX001 (ip), vehicle: saline) 90 % of control; (dose: 400.0 mg/kg/injection, schedule: Q01DX001 (ip), vehicle: saline) 86 % of control.

Take `CC[C@@]1(O)C[C@H](OC2CC(N(C)C)C(OC3CC4OC5CC(=O)C(C)OC5OC4C(C)O3)C(C)O2)c2c(cc3c(c2O)C(=O)c2c(O)cccc2C3=O)[C@H]1C(=O)OC` (stereo partly drawn): the T/C reads like this: (dose: 0.25 mg/kg/injection, schedule: Q01DX009 (ip), vehicle: water) 109 % of control; (dose: 4.0 mg/kg/injection, schedule: Q01DX009 (ip), vehicle: water) 86 % of control.

On to `C[C@]12CC[C@@H]3c4ccc(O)cc4CC[C@H]3[C@@H]1CCC(=O)O2`, for which the T/C is, setting by setting: under setting [5], 91 % of control; under setting [6], 104 % of control; under setting [7], 91 % of control; under setting [8], 90 % of control; under setting [9], 100 % of control.

Regarding `CCOC(=S)Nc1ccc(F)cc1`, the T/C (dose: 33.7 mg/kg/injection, schedule: Q01DX009 (ip), vehicle: saline with Tween-80) is 94 % of control; the T/C (dose: 67.5 mg/kg/injection, schedule: Q01DX009 (ip), vehicle: saline with Tween-80) was 103 % of control; the T/C (dose: 135.0 mg/kg/injection, schedule: Q01DX009 (ip), vehicle: saline with Tween-80) is 102 % of control.

With `CC12CCC(O)CC1CCC1C2CCC2(C)C(c3ccc(=O)oc3)C(O)C3OC132` (stereo not drawn), the T/C runs as follows: (dose: 3.5 mg/kg/injection, schedule: Q01DX009 (ip), vehicle: Klucel (hydroxypropylcellulose) (HPC)) 100 % of control; (dose: 7.0 mg/kg/injection, schedule: Q01DX009 (ip), vehicle: Klucel (hydroxypropylcellulose) (HPC)) 102 % of control.
